In brackets after ≈: the same amount, converted by molar mass. Activity calls are given as the source filed them. The calls are words filed in the database; no cut-off is given here.
Experiments:
Acinetobacter baumannii = assay: Antimicrobial activity against Acinetobacter baumannii; type: functional, organism-based
Bacillus subtilis = assay: Antimicrobial activity against Bacillus subtilis; type: functional, organism-based
[1] = Half life in mouse liver microsomes; type: ADME; conditions: for t1/2: microsomes
Vero = assay: Cytotoxicity against African green monkey Vero cells by cell titer glo assay; type: cell-based; conditions: Chlorocebus sabaeus
[2] = Plasma protein binding in human; type: ADME, cell-free
[3] = Apparent permeability from basolateral to apical side in human Caco2 cells; type: ADME, cell-based; conditions: caco-2
[4] = test system: Mycobacterium tuberculosis; assay: Antimicrobial activity against Mycobacterium tuberculosis H37Rv assessed as growth inhibition after 7 days by microbroth dilution method; type: functional; conditions: 168 h
Bacillus anthracis = assay: Antimicrobial activity against Bacillus anthracis; type: functional, organism-based
Staphylococcus aureus = assay: Antimicrobial activity against Staphylococcus aureus; type: functional, organism-based
Enterococcus faecalis = assay: Antimicrobial activity against Enterococcus faecalis; type: functional, organism-based
[5] = Apparent permeability from apical to basolateral side in human Caco2 cells; type: ADME, cell-based; conditions: caco-2
Klebsiella pneumoniae = assay: Antimicrobial activity against Klebsiella pneumoniae; type: functional, organism-based
Streptococcus pyogenes = assay: Antimicrobial activity against Streptococcus pyogenes; type: functional, organism-based
Streptococcus pneumoniae = assay: Antimicrobial activity against Streptococcus pneumoniae; type: functional, organism-based
Escherichia coli = assay: Antimicrobial activity against Escherichia coli; type: functional, organism-based

| Compound | Activity (Acinetobacter baumannii) | Activity (Bacillus subtilis) | t1/2 [1] | IC50 (Vero) | PPB [2] | Papp [3] | MIC [4] | Activity (Bacillus anthracis) | Activity (Staphylococcus aureus) | Activity (Enterococcus faecalis) | Papp [5] | Activity (Klebsiella pneumoniae) | Activity (Streptococcus pyogenes) | Activity (Streptococcus pneumoniae) | Activity (Escherichia coli) | half-life ([1]; liver microsomes) |
| --- | --- | --- | --- | --- | --- | --- | --- | --- | --- | --- | --- | --- | --- | --- | --- | --- |
| O=[N+]([O-])c1cn2c(n1)OC[C@@H](OCc1ccc(N3CCCCC3)nc1)C2 | inactive | inactive | 1.3 h | > 100 µg/mL | 76.7% | 29.04 ×10⁻⁶ cm/s | 0.78 µg/mL (≈ 2.17 µM) | inactive | inactive | inactive | 37.64 ×10⁻⁶ cm/s | inactive | inactive | inactive | inactive | – |
| O=C1CSCCN1c1ccc(CO[C@@H]2COc3nc([N+](=O)[O-])cn3C2)cc1F | inactive | inactive | 0.6 h | > 100 µg/mL | 77.6% | 37.05 ×10⁻⁶ cm/s | 50 µg/mL (≈ 122 µM) | inactive | inactive | inactive | 33.39 ×10⁻⁶ cm/s | inactive | inactive | inactive | inactive | – |
| O=C1COCCN1c1ccc(CO[C@@H]2COc3nc([N+](=O)[O-])cn3C2)cn1 | inactive | inactive | > 4 h | > 100 µg/mL | 27.9% | 23.82 ×10⁻⁶ cm/s | 3.13 µg/mL (≈ 8.34 µM) | inactive | inactive | inactive | 43.41 ×10⁻⁶ cm/s | inactive | inactive | inactive | inactive | – |
| O=[N+]([O-])c1cn2c(n1)OC[C@@H](OCc1ccc(N3CCSCC3)c(F)c1)C2 | inactive | inactive | 0.06 h | 14.2 µg/mL (≈ 36 µM) | 83.2% | 24.26 ×10⁻⁶ cm/s | 3.13 µg/mL (≈ 7.94 µM) | inactive | inactive | inactive | 32.11 ×10⁻⁶ cm/s | inactive | inactive | inactive | inactive | – |
| O=[N+]([O-])c1cn2c(n1)OC[C@@H](OCc1ccc(N3CCSCC3)cc1)C2 | inactive | inactive | 0.07 h | 13.7 µg/mL (≈ 36.4 µM) | 74.5% | 26.13 ×10⁻⁶ cm/s | 6.25 µg/mL (≈ 16.6 µM) | inactive | inactive | inactive | 26.68 ×10⁻⁶ cm/s | inactive | inactive | inactive | inactive | – |
| O=C1CCCCN1c1ccc(CO[C@@H]2COc3nc([N+](=O)[O-])cn3C2)cc1 | inactive | inactive | 6.7 h | > 100 µg/mL | 66.4% | 34.2 ×10⁻⁶ cm/s | 1.56 µg/mL (≈ 4.19 µM) | inactive | inactive | inactive | 47.25 ×10⁻⁶ cm/s | inactive | inactive | inactive | inactive | – |
| CC(=O)NC[C@H]1CN(c2ccc(N3CCOCC3)c(F)c2)C(=O)O1 [LINEZOLID] | – | – | – | – | 17.8% | – | 0.3 µg/mL (≈ 0.889 µM) | – | – | – | – | – | – | – | – | – |
| O=[N+]([O-])c1cn2c(n1)OC[C@@H](OCc1ccc(N3CCOCC3)nc1)C2 | inactive | inactive | 28.1 h | > 100 µg/mL | 14.5% | 27.63 ×10⁻⁶ cm/s | 3.13 µg/mL (≈ 8.66 µM) | inactive | inactive | inactive | 37.13 ×10⁻⁶ cm/s | inactive | inactive | inactive | inactive | – |
| O=C1CSCCN1c1ccc(CO[C@@H]2COc3nc([N+](=O)[O-])cn3C2)cc1 | inactive | inactive | 0.51 h | > 100 µg/mL | 59.8% | 38.05 ×10⁻⁶ cm/s | 25 µg/mL (≈ 64 µM) | inactive | inactive | inactive | 39.56 ×10⁻⁶ cm/s | inactive | inactive | inactive | inactive | – |
| O=C1CCCCN1c1ccc(CO[C@@H]2COc3nc([N+](=O)[O-])cn3C2)cc1F | inactive | inactive | 3.5 h | > 100 µg/mL | 74.8% | 30.45 ×10⁻⁶ cm/s | 3.13 µg/mL (≈ 8.02 µM) | inactive | inactive | inactive | 46.26 ×10⁻⁶ cm/s | inactive | inactive | inactive | inactive | – |
| O=C1CSCCN1c1ccc(CO[C@@H]2COc3nc([N+](=O)[O-])cn3C2)cn1 | inactive | inactive | 0.63 h | 15.3 µg/mL (≈ 39.1 µM) | 32.1% | 31.44 ×10⁻⁶ cm/s | 50 µg/mL (≈ 128 µM) | inactive | inactive | inactive | 40 ×10⁻⁶ cm/s | inactive | inactive | inactive | inactive | – |
| O=C1CCCCN1c1ccc(CO[C@@H]2COc3nc([N+](=O)[O-])cn3C2)cn1 | inactive | inactive | 20.4 h | > 100 µg/mL | 39.6% | 29.56 ×10⁻⁶ cm/s | 3.13 µg/mL (≈ 8.38 µM) | inactive | inactive | inactive | 33.68 ×10⁻⁶ cm/s | inactive | inactive | inactive | inactive | – |
| O=[N+]([O-])c1cn2c(n1)OC[C@@H](OCc1ccc(OC(F)(F)F)cc1)C2 [PRETOMANID] | inactive | inactive | – | 44 µg/mL (≈ 122 µM) | 92.9% | 13.14 ×10⁻⁶ cm/s | 0.39 µg/mL (≈ 1.09 µM) | inactive | inactive | inactive | 31.58 ×10⁻⁶ cm/s | inactive | inactive | inactive | inactive | 8.1 h |
| O=[N+]([O-])c1cn2c(n1)OC[C@@H](OCc1ccc(N3CCCCC3)c(F)c1)C2 | inactive | inactive | 0.41 h | 56.2 µg/mL (≈ 149 µM) | 85.6% | 28.47 ×10⁻⁶ cm/s | < 0.2 µg/mL | inactive | inactive | inactive | 35.46 ×10⁻⁶ cm/s | inactive | inactive | inactive | inactive | – |
